Test results: patent US20080194540A1, “Use of a Tricyclic Antidepressant Drug For Promoting Endocytosis” (RINA NETZWERK RNA-TECHNOLOGIEN GMBH, priority 2003, published 2008)

How the values were obtained:
[1] = test system: yeast cells (strain RPY10); experiment: Yeast system transfection with pFL1 plasmid (cfu relative to negative control); type: cell-based, Saccharomyces cerevisiae; details: FIG. 1a, concentration series, ordinate values standardized to chloroquine
Method: A first cell system is a yeast system. The transfection protocol corresponded to that of the document B. Neukamm et al., Biochimica et Biophysica Acta 1572:67-76 (2002). For the measurements, a lab robot (Zinsser, Frankfurt, Germany) was used, and a pipetting protocol was prepared.
Yeast precultures were drawn from cultures of a −70° C. glycerol stock of the strain RPY10 (R. C. Piper et al., Eur J Cell Biol 65:305-318 (1995)) for 72 hours. In the main culture, the cells were drawn over night in YPD medium up to a cell density of 5 to 8·10^7 cells/ml. 12·10^9 cells were harvested and washed twice with the same volume of distilled water. The cells were made competent for the transfection by soaking in distilled water for 30 minutes at 4° C. The competent cells were harvested and resuspended in 10 ml 34% sucrose, adjusted with HCl to pH 4. The suspension was immediately transferred into a sterilized 40 ml glass tube (Zinsser Analytik, Frankfurt, Germany), which were then sealed by an aluminum foil. The tubes were then placed on a shaker on the platform of the lab robot and treated for 40 seconds at 300 rpm. The suspension was automatically distributed into the wells of a 96-well microtiter plate (80 μl each by using stainless steel tips).
The subsequent pipetting protocol was as follows. First, solutions of a substance according to the invention or of a reference substance in different concentrations were added. Exactly 5 minutes later, 10 μl of a solution or suspension of the pFL1 plasmid (0.15 μg/μl) of example 1 were automatically added to the mixture of cells and substance. Some wells were used for a negative control, and only the used solvents and the plasmid were added to the cell suspension, not however the substance. After termination of the pipetting protocol, the plate was covered and placed on the Desyre mixer (Zinsser Analytik). After vortexing for 1 minute at 1,300 rpm, an incubation was performed at 28° C. for 18-20 hours. After the incubation, 110 μl distilled water each were slowly added. Then the cells of each well were transferred to 6-well plates (PS Macroplate, Greiner), filled up with 4 ml WMIXura (Neukamm et al., see above). The wells of the microtiter plate were each washed with 50 μl distilled water, and the washing solution was pipetted on the solid surface of the WMIXura. The macroplates were left dry and incubated for 4 days at 28° C.
Colony forming units (cfu) were then counted in every well. The obtained cfu values were related to the cfu values of the negative control. This ratio is a measure for the transfection effectivity.
For each used substance, the optimum concentration was determined by means of concentration series. For this purpose, concentration series of the respective substances were used. […]

[2] = test system: HepG2 cells; experiment: Mammal cells system transfection with luciferase plasmid (luciferase activity); type: cell-based; details: FIG. 1b, concentration series, ordinate values standardized to chloroquine
Method: HepG2 cells were drawn in Dulbecco's Modified Eagle Medium (DMEM, Gibco BRL, Eggenstein, Germany), supplemented with 10% FBS (fetal bovine serum, Gibco) and 1 μg/ml insulin. On day 1, the cells were removed by means of trypsination, washed and distributed on the wells of a 24-well tissue culture dish, namely 1.5·10^7 cells per well.
24 hours later the transfection tests were performed with the luciferase plasmid from example 1 with different substances at approx. 70 to 80% confluence. The supernatant was removed, and then a mixture (250 μl) containing medium, 12.5 μl dextran (10 mg/ml), 0.5 μl of the plasmid and the respective substance was added to every well. After 2.5 hours incubation at 37° C., the supernatant was removed, and 500 μl complete medium were added to each well. On day 5, the luciferase activity was measured by using the Dual Luciferase® Reporter Assay Kit (Promega, Mannheim, Germany). For this purpose, 48 hours after the transfection, the cell culture supernatants were removed, and the cells were solubilized after addition of 100 μl 1× lysis buffer per well (Promega) for 20 minutes at 20° C. on a slow shaker. 20 μl of the cell-free supernatant were transferred into a 96-well plate (Corning and Costar, Wiesbaden, Germany) and reacted with 100 μl luciferase assay buffer. The luciferase activity was measured with a luminometer (EG&G Berthold MicrolumatPlus).
For each used substance, the optimum concentration was determined by means of concentration series. For this purpose, concentration series of the respective substances were used. For comparing, corresponding measurements were performed with chloroquine. […] The ordinate values are standardized to chloroquine.

Compound | optimum concentration for promoting transfection, compared to chloroquine [1] | optimum concentration for promoting transfection, compared to chloroquine [2]
CN(C)CCCN1c2ccccc2Sc2ccc(Cl)cc21 [chlorpromazine] | smaller | smaller
Clc1ccc2c(c1)C(N1CCNCC1)=Nc1ccccc1O2 [amoxapine] | smaller | smaller
CN(C)CCC=C1c2ccccc2COc2ccccc21 [doxepine] | similarly high | similarly high
CNCCCC12CCC(c3ccccc31)c1ccccc12 [maprotyline] | smaller | smaller
